Reference: patent US11634712B2, “Nucleic acid simultaneously inhibiting expression of mTOR gene and STAT3 gene” (CURIGIN CO., LTD., priority 2017, dated 2023)
d = 2'-deoxy (DNA); r = 2'-OH (RNA)

Columns and labels:
mTOR gene = assay: mTOR expression after mTOR siRNA and/or STAT3 siRNA transfection of A549, real-time PCR; type: cell-based, human; settings: A549, 48 hours after transfection, relative to control siRNA nc2 = 1.0000
STAT3 gene = assay: STAT3 expression after mTOR siRNA and/or STAT3 siRNA transfection of A549, real-time PCR; type: cell-based, human; settings: A549, 48 hours after transfection, relative to control siRNA nc2 = 1.0000

Substance | mTOR expression level (mTOR gene) | STAT3 expression level (STAT3 gene)
siSTAT3: siRNA targeting the only STAT3; SEQ ID NOS: 24 and 25 (chain 1 UGUUCUCUGAGACCCAUGATT; chain 2 UCAUGGGUCUCAGAGAACATT; sugars from the 5' end r19 d2, backbone not given here) | 1.0507 | 0.6074
simTOR: siRNA targeting the only mTOR; SEQ ID NOs: 22 and 23 (chain 1 GUGGAAACAGGACCCAUGATT; chain 2 UCAUGGGUCCUGUUUCCACTT; sugars from the 5' end r19 d2, backbone not given here) | 0.1980 | 1.0705
